Reference: patent US11192849B2, “Compounds, compositions, and methods for modulating ferroptosis and treating excitotoxic disorders” (THE TRUSTEES OF COLUMBIA UNIVERSITY IN THE CITY OF NEW YORK, priority 2013, dated 2021)

System: mice, LPS-induced shock
Experiment: LPS-induced lethal shock
Format: in vivo, mouse
Details: Fer-1 5 mg/kg i.p. 30 min before LPS
Protocol: Mice were injected intraperitoneally (i.p.) with 15 mg/kg Escherichia coli O111:B4 LPS (Sigma-Aldrich). Mice were pretreated by an i.p. injection of 5 mg/kg ethyl 3-amino-4-(cyclohexylamino)benzoate (Fer-1; Matrix Scientific), 10 mg/kg [5-((7-Cl-1H-indol-3-yl)methyl)-3-methylimidazolidine2,4-dione] (Nec-1s; synthesized in house), a combination of Fer-1 and Nec-1s, or vehicle (1% DMSO in PBS) 30 min before the LPS challenge. Rectal body temperature and survival rates were monitored daily up to 96 h. Experiments were approved by the animal ethics committee of Ghent University.

How did the “temperature drop and survival after LPS” value turn out when `CCOC(=O)c1ccc(NC2CCCCC2)c(N)c1` [SRS8-28 (Fer-1), ethyl 3-amino-4-(cyclohexylamino)benzoate] was run?
The value was “no difference compared with vehicle-treated mice was evident”.
